Test results: article PMC11990898, “Novel Isatin–Chalcone Hybrid Molecules: Design, Synthesis and Anti-Neuroinflammatory Activity Evaluation” (Molecules, 2025)

Key:
Type in all cases: cell-based, mouse
[1] = test system: BV2 microglial cells; assay: Cell viability assay (MTS) on BV2 cells; settings: for IC50: Mus musculus, BV-2, MTS, 24 h
Experimental: (§1) BV2 microglial cells (SCSP-5208, Cell Bank, Chinese Academy of Sciences, Shanghai, China) were incubated in high-glucose DMEM supplemented with 10% fetal bovine serum and 1% penicillin and streptomycin in a humidified atmosphere of 5% CO2 at 37 °C.
(§2) BV2 cells were plated in 96-well microplates at 20,000 cells per well (100 μL/well) and incubated for 24 h. Then, 100 μL of compounds (diluted with medium to a final concentration of 1.56–100 μM) was added, and each concentration had 3 parallel wells. After 24 h, the cell viability was measured by MTS assay. The absorbance was detected at 490 nm. The percentage of viability was obtained from the following formula: ODdrug-treated/ODnormal cells × 100. The IC50 values of test compounds were calculated by linear regression plots.

[2] = test system: NO release from LPS-stimulated BV2 cells; assay: NO release inhibition in LPS-stimulated BV2 cells (Griess method); settings: for IC50 / inhibition at 20 µM: Mus musculus, BV-2, LPS-stimulated BV2 cells; for IC50: 24 h; for Nitrite (NO release amount): BV2 cells induced by LPS, Griess test; for Nitrite (NO release amount) / inhibition at 20 µM: compound at 20 μM; for inhibition at 20 µM: read-out: NO inhibition rate
Experimental: BV2 cells stimulated by lipopolysaccharide (LPS) lead to an increase in NO release. Therefore, we used the inhibitory ability of the target compounds on NO as a preliminary method to evaluate their anti-neuroinflammatory properties. We evaluated the inhibitory ability of isatin–chalcone hybrid derivatives 4a–t on the release of NO from BV2 cells at 20 μM. The release amount of NO was detected by the Griess method, and the actual release amount of NO was calculated based on the experimental data.
BV2 cells were plated in 96-well microplates at 40,000 cells per well (100 μL/well) and incubated for 24 h. Then, 50 μL of LPS solution with a final concentration of 100 ng/mL and 50 μL of compounds (diluted with medium to a final concentration of 0.31–20 μM) were added, and each concentration had 3 parallel wells. The NO assay kit was used to carry out nitrite assays after 24 h. The 50 μL of culture medium was mixed with the GrisR1 (50 μL) and GrisR2 (50 μL) of the NO assay kit in another new 96-well plate. The absorbance was detected at 540 nm. The percentage of inhibition of NO was obtained from the following formula: [(Rlps − RB − RC)/(Rlps − RB)] × 100, where Rlps is the release amount of only the LPS-treated group, RB is the release amount of the normal control and RC is the release amount of the test compound and LPS-treated group. The IC50 values of test compounds were calculated by linear regression plots.

[3] = test system: TNF-α; assay: ELISA of TNF-α released by LPS-stimulated BV2 cells; settings: for effect on production of TNF-α: result in words
Experimental: (§3) BV2 cells were plated in 96-well microplates at 40,000 cells per well (100 μL/well) and incubated for 24 h. Then, 50 μL of LPS solution with a final concentration of 100 ng/mL and 50 μL of compounds (diluted with medium to a final concentration of 0.75–40 μM) were added, and each concentration had 3 parallel wells. The supernatant was collected after 24 h. Then, according to the manufacturer’s instructions, the ELISA assay kit was used to measure the concentrations of IL-6 and TNF-α. The absorbance was detected at 450 nm.

[4] = test system: IL-6; assay: ELISA of IL-6 released by LPS-stimulated BV2 cells; settings: for effect on production of IL-6: result in words
Experimental: as §3

[5] = Cell viability assay (MTS) on BV2 cells; settings: mouse, BV2 microglial cells, MTS
Experimental: as §1, §2

SMILES	IC50 [1] [µM]	IC50 [2] [µM]	effect on production of TNF-α [3]	effect on production of IL-6 [4]	Nitrite (NO release amount) [2] [µM]	inhibition at 20 µM [2] [%]	viability at 24 h, 3.1 µM ([5]; compound at 3.1 μM, read-out: cell viability (cell survival rate)) [%]	viability at 24 h, 6.3 μM ([5]; compound at 6.3 μM (printed 6.23 μM for 4b), read-out: cell viability (cell survival rate)) [%]	viability at 24 h, 12.5 µM ([5]; compound at 12.5 μM) [%]	viability at 24 h, 25 µM ([5]; compound at 25 μM, 24 h) [%]	cytotoxicity ([1]; under the concentration of 12.5 μM)	reduction of TNF-α levels ([3]; compound at 1.5 μM, p < 0.0001) [%]	reduction of IL-6 levels ([4]; compound at 1.5 μM, p < 0.0001) [%]
COc1cc(C(=O)/C=C2/C(=O)N(CC(=O)OCCCc3ccccc3)c3ccccc32)cc(OC)c1OC [Compound 5g, 3-Phenylpropyl (E)-2-(2-oxo-3-(2-oxo-2-(3,4,5-trimethoxyphenyl)ethylidene)indolin-1-yl)acetate]	48.5	6	relatively weaker inhibitory effects	relatively weaker inhibitory effects									
CCOC(=O)CN1C(=O)/C(=C/C(=O)c2cc(OC)c(OC)c(OC)c2)c2ccccc21 [Compound 4j, Ethyl (E)-2-(2-oxo-3-(2-oxo-2-(3,4,5-trimethoxyphenyl)ethylidene)indolin-1-yl)acetate]	71.8	15.7	relatively weaker inhibitory effects	relatively weaker inhibitory effects	8.6 ± 0.1	71							
CCOC(=O)CN1C(=O)/C(=C/C(=O)c2cc(OC)c(OC)c(OC)c2)c2cc(C)ccc21 [Compound 9e, Ethyl (E)-2-(5-methyl-2-oxo-3-(2-oxo-2-(3,4,5-trimethoxyphenyl)ethylidene)indolin-1-yl)acetate]	80.6	10.3	relatively weaker inhibitory effects	relatively weaker inhibitory effects		72							
CCOC(=O)CN1C(=O)/C(=C/C(=O)/C=C/c2ccccc2)c2ccccc21 [Compound 4b, Ethyl 2-((E)-2-oxo-3-((E)-2-oxo-4-phenylbut-3-en-1-ylidene)indolin-1-yl)acetate]	34.6	1.6	decreased significantly	decreased significantly	0.69 ± 0.01	98	98.3	89.9	79.5	48	did not show obvious cytotoxicity	37	47
